The text below walks through data of publication PMC2248166, “Quantitative peptide binding motifs for 19 human and mouse MHC class I molecules derived using positional scanning combinatorial peptide libraries” (Immunome Research, 2008).

Structures are written as SMILES. Where a SMILES comes first, the peptide text is derived from it.

The target of this assay is HLA A*3201 (Homo sapiens, UniProt P04439, A270S/D101S/D185E/E176V/E277Q/F133L/G103R/G107R/G231S/H175R/I121M/I218V/I322F/K168Q/L105A/L300P/L318F/M331R/P208A/P217A/Q94H/R106L/R138Q/S129P/T104I/T323A/T345S/V100E/V321M/V358M). Put plainly: biochemical. The assay is classed as binding.
For `CC[C@H](C)[C@H](NC(=O)[C@@H](N)Cc1c[nH]cn1)C(=O)N[C@@H](Cc1ccc(O)cc1)C(=O)N[C@@H](Cc1ccccc1)C(=O)N[C@H](C(=O)N[C@@H](CO)C(=O)N[C@@H](CC(C)C)C(=O)N[C@@H](CC(C)C)C(=O)N[C@@H](CC(C)C)C(=O)O)C(C)C` [3102.0380] (H-HIYFVSLLL-OH), the 50% inhibitory concentration (IC50) (usually the concentration that gives 50% inhibition) came out at 15 nM. Compound `CC(C)C[C@H](NC(=O)[C@@H](NC(=O)[C@@H](NC(=O)[C@@H](NC(=O)[C@@H](NC(=O)[C@@H](NC(=O)[C@H](CC(C)C)NC(=O)[C@@H](NC(=O)[C@@H](N)CCCCN)[C@@H](C)O)[C@@H](C)O)[C@@H](C)O)[C@@H](C)O)C(C)C)C(C)C)C(=O)O` [3102.0381] (H-KTLTTTVVL-OH) yielded a half-inhibitory concentration (IC50) of 9.4 nM. This IC50 lies about 1.6-fold lower than the previous one. Under `CC[C@H](C)[C@H](N)C(=O)N[C@H](C(=O)N[C@H](C(=O)N[C@@H](Cc1ccc(O)cc1)C(=O)N[C@@H](Cc1ccccc1)C(=O)N[C@@H](CCCNC(=N)N)C(=O)N[C@@H](CCCNC(=N)N)C(=O)N[C@H](C(=O)N[C@H](C(=O)O)[C@@H](C)CC)[C@@H](C)O)C(C)C)[C@@H](C)O` [3102.0382] (H-ITVYFRRTI-OH) stands 26 nM; under `CC[C@H](C)[C@H](NC(=O)[C@@H](NC(=O)[C@H](CC(C)C)NC(=O)[C@H](CO)NC(=O)[C@H](C)NC(=O)CNC(=O)[C@H](CC(N)=O)NC(=O)[C@H](CO)NC(=O)[C@@H](N)CC(C)C)[C@@H](C)O)C(=O)O` [3102.0383] (H-LSNGASLTI-OH), 74 nM. Under `CC[C@H](C)[C@H](NC(=O)[C@@H]1CCCN1C(=O)[C@H](CC(C)C)NC(=O)[C@@H](NC(=O)[C@H](CC(N)=O)NC(=O)[C@H](Cc1ccc(O)cc1)NC(=O)[C@H](CCSC)NC(=O)[C@@H](NC(=O)[C@@H](N)Cc1ccc(O)cc1)[C@@H](C)CC)[C@@H](C)CC)C(=O)O` [3102.0384] (H-YIMYNILPI-OH) stands 39 nM; under `CC[C@H](C)[C@H](NC(=O)[C@@H](NC(=O)[C@H](CC(N)=O)NC(=O)[C@H](CC(N)=O)NC(=O)[C@H](Cc1ccc(O)cc1)NC(=O)[C@H](CC(C)C)NC(=O)[C@@H](NC(=O)[C@@H](NC(=O)[C@@H](N)Cc1c[nH]cn1)[C@@H](C)O)[C@@H](C)CC)[C@@H](C)O)C(=O)O` [3102.0385] (H-HTILYNNTI-OH), 1.9 nM. Next, `CC[C@H](C)[C@H](NC(=O)[C@H](CCCCN)NC(=O)CNC(=O)[C@H](CC(N)=O)NC(=O)[C@@H](NC(=O)[C@@H](N)CCSC)[C@@H](C)O)C(=O)N[C@@H](CC(N)=O)C(=O)N[C@@H](CO)C(=O)N[C@@H](CC(C)C)C(=O)O` [3102.0386] (H-MTNGKINSL-OH): 22 nM. Compound `CC[C@H](C)[C@H](N)C(=O)N[C@H](C(=O)N[C@@H](Cc1ccc(O)cc1)C(=O)N[C@@H](Cc1c[nH]c2ccccc12)C(=O)N[C@@H](CO)C(=O)N[C@@H](CCCNC(=N)N)C(=O)N[C@@H](Cc1ccccc1)C(=O)N[C@H](C(=O)N[C@H](C(=O)O)[C@@H](C)CC)[C@@H](C)O)[C@@H](C)O` [3102.0387] (H-ITYWSRFTI-OH) displayed a 50% inhibitory concentration (IC50) of 2.5 nM. Under `CC[C@H](C)[C@H](NC(=O)[C@H](CO)NC(=O)[C@@H](NC(=O)CNC(=O)[C@H](CC(C)C)NC(=O)[C@@H](NC(=O)[C@H](CO)NC(=O)[C@H](CCSC)NC(=O)[C@@H](N)CCCCN)[C@@H](C)CC)C(C)C)C(=O)O` [3102.0388] (H-KMSILGVSI-OH) stands 2.4 nM. The compound `CC[C@H](C)[C@H](NC(=O)[C@H](CC(N)=O)NC(=O)[C@@H](NC(=O)[C@@H](NC(=O)[C@@H](N)CO)[C@@H](C)O)[C@@H](C)CC)C(=O)N[C@@H](CS)C(=O)N[C@@H](CC(C)C)C(=O)N1CCC[C@H]1C(=O)N[C@@H](Cc1ccc(O)cc1)C(=O)O` [3102.0390] (H-STINICLPY-OH) yielded an IC50 of 32 nM. Next, `CC[C@H](C)[C@H](NC(=O)[C@H](CC(C)C)NC(=O)[C@H](Cc1c[nH]cn1)NC(=O)[C@@H](N)CCCNC(=N)N)C(=O)N[C@@H](Cc1ccccc1)C(=O)N[C@@H](CO)C(=O)N[C@@H](Cc1ccc(O)cc1)C(=O)N[C@@H](C)C(=O)N[C@@H](Cc1ccccc1)C(=O)O` [3102.0393] (H-RHLIFSYAF-OH): 14 nM; `CC[C@H](C)[C@H](NC(=O)[C@H](CO)NC(=O)[C@H](CS)NC(=O)[C@H](CCSC)NC(=O)[C@@H](N)C(C)C)C(=O)N[C@@H](CO)C(=O)N[C@@H](CC(C)C)C(=O)N[C@H](C(=O)N[C@@H](Cc1ccc(O)cc1)C(=O)O)[C@@H](C)O` [3102.0394] (H-VMCSISLTY-OH): 11 nM. Under `CC[C@H](C)[C@H](NC(=O)[C@@H]1CCCN1C(=O)[C@H](CC(C)C)NC(=O)[C@@H](NC(=O)[C@H](Cc1ccc(O)cc1)NC(=O)[C@H](Cc1ccccc1)NC(=O)[C@H](CCSC)NC(=O)[C@H](CC(C)C)NC(=O)[C@@H](N)Cc1c[nH]cn1)[C@@H](C)O)C(=O)O` [3102.0397] (H-HLMFYTLPI-OH) stands 0.18 nM. Next, `CC[C@H](C)[C@H](NC(=O)[C@H](CC(N)=O)NC(=O)[C@H](CC(N)=O)NC(=O)[C@@H](NC(=O)[C@@H]1CCCN1C(=O)[C@H](CCC(N)=O)NC(=O)[C@H](CC(N)=O)NC(=O)[C@H](CC(C)C)NC(=O)[C@@H](N)CCCNC(=N)N)C(C)C)C(=O)O` [3102.0398] (H-RLNQPVNNI-OH): 25 nM. Take `CC[C@H](C)[C@H](N)C(=O)N[C@@H](CO)C(=O)N[C@@H](Cc1c[nH]c2ccccc12)C(=O)N[C@@H](CCSC)C(=O)N[C@@H](CCSC)C(=O)N[C@@H](CCCCN)C(=O)N[C@@H](CC(C)C)C(=O)NCC(=O)N[C@H](C(=O)O)[C@@H](C)CC` [3102.0399] (H-ISWMMKLGI-OH): the IC50 turned out to be 42 nM. Next, `CC[C@H](C)[C@H](NC(=O)[C@@H](NC(=O)[C@H](CC(N)=O)NC(=O)[C@@H](NC(=O)[C@@H](NC(=O)[C@H](C)NC(=O)[C@H](Cc1c[nH]c2ccccc12)NC(=O)[C@H](CC(C)C)NC(=O)[C@@H](N)[C@@H](C)O)[C@@H](C)CC)[C@@H](C)CC)[C@@H](C)O)C(=O)O` [3102.0403] (H-TLWAIINTI-OH): 1.5 nM; `CC[C@H](C)[C@H](NC(=O)[C@@H](NC(=O)[C@@H]1CCCN1C(=O)[C@@H](NC(=O)[C@H](Cc1ccccc1)NC(=O)[C@H](CC(N)=O)NC(=O)[C@H](CCSC)NC(=O)[C@@H](NC(=O)[C@@H](N)CO)C(C)C)[C@@H](C)CC)[C@@H](C)CC)C(=O)O` [3102.0404] (H-SVMNFIPII-OH): 0.6 nM. With `CC[C@H](C)[C@H](N)C(=O)N[C@H](C(=O)N[C@@H](Cc1ccc(O)cc1)C(=O)N1CCC[C@H]1C(=O)N[C@@H](CCCCN)C(=O)N[C@@H](C)C(=O)N[C@@H](CC(C)C)C(=O)N[C@H](C(=O)N[C@@H](Cc1ccccc1)C(=O)O)C(C)C)[C@@H](C)O` [3102.0405] (H-ITYPKALVF-OH), half-maximal inhibition (IC50) was put at 3 nM. Under `CC[C@H](C)[C@H](NC(=O)[C@H](CC(C)C)NC(=O)[C@H](CC(C)C)NC(=O)[C@H](CC(C)C)NC(=O)[C@H](CC(C)C)NC(=O)[C@H](CC(N)=O)NC(=O)CNC(=O)[C@H](CC(C)C)NC(=O)[C@@H](N)CCCCN)C(=O)O` [3102.0406] (H-KLGNLLLLI-OH) stands 0.72 nM; under `CC[C@H](C)[C@H](NC(=O)[C@H](Cc1ccc(O)cc1)NC(=O)CNC(=O)[C@H](CO)NC(=O)[C@@H](NC(=O)[C@@H](N)CCCCN)[C@@H](C)O)C(=O)N[C@@H](CO)C(=O)N[C@@H](CO)C(=O)N[C@@H](Cc1ccccc1)C(=O)O` [3102.0408] (H-KTSGYISSF-OH), 0.5 nM.
